These results are taken from article PMC4435632, “Phase 1 study of ixazomib, an investigational proteasome inhibitor, in advanced non-hematologic malignancies” (Investigational New Drugs, 2015).

In data set [1] the test system is patients with advanced non-hematologic malignancies. Nature of the data set: Dose-limiting toxicities in cycle 1 and determination of MTD. It counts as in vivo. The procedure: The dose-escalation cohort comprised patients with any non-hematologic malignancy. The four MTD expansion cohorts were limited to patients with non-small cell lung cancer (NSCLC), head and neck cancer (squamous cell cancer), soft tissue sarcoma, and prostate cancer, respectively. In addition, the TPEC was open to patients with non-hematologic malignancy that could be safely biopsied. Dose escalation initially proceeded from a starting dose of 0.125 mg/m^2 of body surface area, with one patient per dose level and dose doubling up to a dose of 1.0 mg/m^2. Dose doubling was permitted until one of the following occurred: one patient experienced a dose-limiting toxicity (DLT) during cycle 1; any two patients experienced a drug-related adverse event (AE) of grade ≥2 during cycle 1; or the dose level of 1 mg/m^2 had been evaluated. Dose escalation then proceeded in 33 % increments following a standard 3 + 3 schema based on the occurrence of DLTs in cycle 1. […]
The safety population included all patients who received ≥1 dose of ixazomib, and the DLT-evaluable population, which was used for determination of the MTD, comprised patients who received all cycle 1 doses of ixazomib or experienced a DLT in cycle 1. […] Approximately 16 response-evaluable patients were planned to be evaluated in each MTD expansion cohort.

The nature of data set [2]: Plasma ixazomib pharmacokinetics (LC/MS/MS, noncompartmental). It is filed as in vivo. The procedure:
Blood samples for determination of plasma ixazomib concentrations for pharmacokinetic analysis (3 mL) and for measurement of whole blood 20S proteasome activity (1 mL) were collected at the following timepoints for all patients in the dose-escalation cohort and for the first 12 patients completing cycle 1 while receiving protocol-specified treatment at the MTD: pre-dose (within 1 h) on days 1, 4, 8, and 11 of cycle 1, and on day 1 of cycle 2; and on days 1 and 11, cycle 1, at 5, 15 and 30 min, and 1, 2, 4, 9, 24, 48, 96 (day 11 only), 120 (day 11 only), and 168 (day 11 only) h post-dose. A limited sampling schedule was employed for the remaining patients in the MTD expansion cohorts.
Plasma concentrations of ixazomib were measured using a good laboratory practice-validated liquid chromatography/tandem mass spectrometry (LC/MS/MS) assay with a lower limit of quantification of 0.5 ng/mL. Whole blood 20S proteasome activity (expressed as percent proteasome inhibition relative to baseline) was measured using an established fluorogenic assay, which evaluates the chymotrypsin-like activity of the β5 subunit of the 20S proteasome, the primary target of ixazomib. […]
All efficacy and safety data were summarized using descriptive statistics. Pharmacokinetic and pharmacodynamic parameters were calculated using noncompartmental methods (WinNonlin software v5.3).

The next data set deals with ATF-3. Put plainly: ATF-3 IHC staining in pre- and post-dose tumor biopsies. It counts as in vivo, human. As to conditions: TPEC, 1.76 mg/m^2; seven evaluable tumor pairs. Here is the method: This open-label, non-randomized, dose-escalation phase 1 study was conducted at 7 sites in the United States and Canada, with patients enrolled from March 02, 2009 to January 10, 2012. The primary objective of the trial was to determine the safety profile, establish the maximum tolerated dose (MTD), and inform the recommended phase 2 dose of IV ixazomib in patients with non-hematologic malignancies. Secondary objectives were to characterize the pharmacokinetics and pharmacodynamics of IV ixazomib in blood and to evaluate disease response. Drug distribution and target engagement in post-dose tumor samples was measured by determining the increase in ATF-3 levels in post-dose tumor samples compared with pre-dose samples by immunohistochemistry (IHC).
Tumor biopsies were analyzed for the presence of ixazomib using a quantified LC/MS/MS methodology validated in xenograft models. Expression of ATF-3 was measured in the TPEC using an IHC staining assay developed and validated using preclinical and human primary tumor samples. For this assay, formalin-fixed, paraffin-embedded tumor biopsy samples were obtained pre- and post-treatment (at 4–24 h post-dosing on day 1 or day 4 of cycle 1). […] After staining, whole slides were scanned and analyzed to calculate the percentage ATF-3-positive area for each section using the Genie™ (Aperio® ePathology Solutions) pattern recognition tool. […]

As for `CC(C)C[C@H](NC(=O)CNC(=O)c1cc(Cl)ccc1Cl)B(O)O` [ixazomib], in data set [1] (IV on days 1, 4, 8, and 11 of a 21-day cycle), the “MTD (maximum tolerated dose)” value turned out to be 1.76 mg/m^2. Besides, the “Patients who experienced DLTs” value in data set [1] (in vivo) is “Five”. Besides, the “C0 (extrapolated immediate post-bolus plasma concentration)” value in data set [2] (day 1, 2.34 mg/m^2 IV, n = 1, individual value) was 0.901 µg/mL. Further, in data set [2] (day 11, 1.33 mg/m^2 IV, n = 3, geometric mean (% CV)), the “t½ (terminal disposition phase half-life)” value is given as 145 (19) h. The “Decrease of mean plasma concentrations” value in data set [2] (human, in vivo, 8 h) is given as “approximately 90%”. For the same molecule, in data set [2] (human, in vivo, 11 day of cycle 1), the Accumulation of ixazomib entry is recorded as “approximately 3 fold”. The half-life was 91.2 to 173 h in data set [2] (human, in vivo, iv); 172 h in data set [2] (human, in vivo, iv, 1 mg/m2); 110 h in data set [2] (human, in vivo, iv, 1.76 mg/m2); 90.8 h in data set [2] (human, in vivo, iv, 2.34 mg/m2). Besides, the C0 is 0.0271 µg/mL in data set [2] (human, in vivo, iv, 0.125 mg/m2, C0 (extrapolated immediate post-bolus plasma concentration)); 0.069 µg/mL in data set [2] (human, in vivo, iv, 0.25 mg/m2, C0 (extrapolated immediate post-bolus plasma concentration)); 0.273 µg/mL in data set [2] (human, in vivo, iv, 1 mg/m2, C0 (extrapolated immediate post-bolus plasma concentration)); 0.39 µg/mL in data set [2] (human, in vivo, iv, 1.33 mg/m2, C0 (extrapolated immediate post-bolus plasma concentration)); 0.556 µg/mL in data set [2] (human, in vivo, iv, 1.76 mg/m2, C0 (extrapolated immediate post-bolus plasma concentration)); 0.869 µg/mL in data set [2] (human, in vivo, iv, 2.34 mg/m2, C0 (extrapolated immediate post-bolus plasma concentration)). This molecule also yielded an AUC(0-t) in data set [2] (human, in vivo, iv, 0.25 mg/m2, AUC0–72) of 0.0609 µg·h/mL. In addition, in data set [2] (in vivo), the “Plasma exposure versus dose” value is on record as “appeared to increase proportionally with increasing ixazomib dose”. Further, the “Paired tumor samples with statistically significant increase in post-dose ATF-3 levels (p <0.05)” value with ATF-3 was “Six of the seven”.
